Experimental findings from patent US6911445B2, “Antidepressant cycloalkylamine derivatives of heterocycle-fused benzodioxans” (Wyeth, priority 2002, dated 2005) are described below.

Structures can show the parent of a compound that is named as a salt.

One series concerns the target T1, serotonin transporter (Rattus norvegicus, UniProt P31652).
T1 construct: displace ^3H-paroxetine from male rat frontal cortical membranes; from tissue; host or cells: male rat frontal cortex membranes
Kind of series: Displacement of 3H-paroxetine from male rat frontal cortical membranes (serotonin transporter affinity). The note with it: read-out: 5-HT Transporter Affinity Ki. In kind it is binding.

The next series has as its target T2, human 5HT1A receptors (Homo sapiens, UniProt P08908).
T2 construct: expressed in transfected cells; host or cells: CHO cells
T2 sequence (P08908 1-422): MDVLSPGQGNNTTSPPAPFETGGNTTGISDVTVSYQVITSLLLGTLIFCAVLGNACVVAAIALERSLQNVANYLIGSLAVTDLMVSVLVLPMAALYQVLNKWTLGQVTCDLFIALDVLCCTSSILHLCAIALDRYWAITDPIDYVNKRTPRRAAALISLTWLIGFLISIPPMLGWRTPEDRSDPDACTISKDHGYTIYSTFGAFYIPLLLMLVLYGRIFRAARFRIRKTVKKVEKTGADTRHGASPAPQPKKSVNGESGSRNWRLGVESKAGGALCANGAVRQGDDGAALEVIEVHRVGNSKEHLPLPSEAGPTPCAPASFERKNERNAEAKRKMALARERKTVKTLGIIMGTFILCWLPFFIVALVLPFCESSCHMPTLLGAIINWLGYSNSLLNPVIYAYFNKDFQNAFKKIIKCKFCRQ
The experiment in a line: Displacement of [3H] 8-OH-DPAT from 5HT1A receptor in stably transfected CHO cells. Type of series: binding. Conditions: CHO cells with human 5HT1A receptors, read-out: 5HT1A Receptor Affinity Ki. From the text: High affinity for the serotonin 5HT1A receptor was established by testing the claimed compound's ability to displace [^3H] 8-OH-DPAT (dipropylamino-tetralin) from the 5HT1A serotonin receptor following a modification of the procedure of Hall, et al., J. Neurochem. 44, 1685 (1985), which utilizes CHO cells stably transfected with human 5HT1A receptors.
Background: Loss of bound radioactivity is the signal in a displacement assay; it reports binding, not function.

Series [1] addresses T3, cloned human 5HT1A receptors (Homo sapiens, UniProt P08908).
T3 construct: expressed in transfected cells
T3 sequence (P08908 1-422): T2 sequence (P08908 1-422)
The experiment in a line: 35S-GTPγS binding assay, membranes containing cloned human 5HT1A receptors. In kind it is biochemical. The note with it: for IC50: antagonist potency, reversal of the standard agonist 8-OH-DPAT, read-out: 5HT1A Function IC50; for 5HT1A Function (Imax): maximum inhibitory effect, value in parentheses. On the procedure:
Antagonist activity at 5HT1A receptors was established by using a ^35S-GTPγS binding assay similar to that used by Lazareno and Birdsall (Br. J. Pharmacol. 109:1120, 1993), in which the test compound's ability to affect the binding of ^35S-GTPγS to membranes containing cloned human 5HT1A receptors was determined. Agonists produce an increase in binding whereas antagonists produce no increase but rather reverse the effects of the standard agonist 8-OH-DPAT. The test compound's maximum inhibitory effect is represented as the Imax, while its potency is defined by the IC50.

T1 sequence (P31652 whole entry): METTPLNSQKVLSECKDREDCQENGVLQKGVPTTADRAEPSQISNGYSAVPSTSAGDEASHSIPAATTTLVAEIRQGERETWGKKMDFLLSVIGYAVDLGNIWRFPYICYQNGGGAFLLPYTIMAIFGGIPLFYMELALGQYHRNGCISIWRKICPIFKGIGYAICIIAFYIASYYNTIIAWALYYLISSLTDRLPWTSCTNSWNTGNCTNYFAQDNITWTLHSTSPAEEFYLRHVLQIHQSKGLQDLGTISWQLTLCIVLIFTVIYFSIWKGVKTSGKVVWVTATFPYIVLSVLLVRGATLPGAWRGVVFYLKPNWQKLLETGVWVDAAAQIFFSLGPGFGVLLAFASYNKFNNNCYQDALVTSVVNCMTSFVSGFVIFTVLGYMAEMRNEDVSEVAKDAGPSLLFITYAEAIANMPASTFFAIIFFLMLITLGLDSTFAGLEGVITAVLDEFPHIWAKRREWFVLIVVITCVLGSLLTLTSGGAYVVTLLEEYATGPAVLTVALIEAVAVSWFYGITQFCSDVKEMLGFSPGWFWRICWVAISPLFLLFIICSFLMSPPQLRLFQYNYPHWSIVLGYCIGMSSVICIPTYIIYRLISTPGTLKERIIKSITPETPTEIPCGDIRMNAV

`Cc1ccc2c3c(ccc2n1)OC[C@H](CN[C@H]1CC[C@@H](c2c[nH]c4ccc(F)cc24)C1)O3` (mixture of isomers) (as salt: HCl) (hydrate or solvate) [Example 3, N-[(cis)-3-(5-fluoro-1H-indol-3-yl)cyclopentyl]-N-{[(2S)-8-methyl-2,3-dihydro[1,4]dioxino[2,3-f]quinolin-2-yl]methyl}amine]: the melting point is 234 to 235 °C.
The compound `Cc1nc2ccc3c(c2o1)O[C@@H](CN[C@H]1CC[C@H](c2c[nH]c4ccc(F)cc24)C1)CO3` (mixture of isomers) [Example 10, N-[(trans)-3-(5-Fluoro-1H-indol-3-yl)cyclopentyl]-N-{[(8S)-2-methyl-7,8-dihydro[1,4]dioxino[2,3-g][1,3]benzoxazol-8-yl]methyl}amine] registered a melting point of 79 to 82 °C. At serotonin transporter, the Ki turned out to be 1.38 nM. For the same compound, the Ki on human 5HT1A receptors is 28.6 nM. In series [1], the IC50 came to 172 nM and the 5HT1A Function (Imax) turned out to be 85%.
The compound `Cc1nc2ccc3c(c2o1)O[C@@H](CN[C@H]1CC[C@@H](c2c[nH]c4ccc(F)cc24)C1)CO3` (mixture of isomers) [Example 11, N-[(cis)-3-(5-Fluoro-1H-indol-3-yl)cyclopentyl]-N-{[(8S)-2-methyl-7,8-dihydro[1,4]dioxino[2,3-g][1,3]benzoxazol-8-yl]methyl}amine] came in with a melting point of 79 to 82 °C. The Ki on serotonin transporter turned out to be 1.46 nM. In addition, at human 5HT1A receptors, the Ki was found to be 16.4 nM. Moreover, in series [1], the IC50 came to 274 nM and the 5HT1A Function (Imax) was 100%.
For the compound `Cc1ccc2c3c(ccc2n1)OC[C@H](CN(C)[C@@H]1CC[C@H](c2c[nH]c4ccc(F)cc24)C1)O3` (relative stereo) (as salt: fumarate) [Example 13, N-[(1R*,3S*)-3-(5-fluoro-1H-indol-3-yl)cyclopentyl]-N-methyl-N-{[(2S)-8-methyl-2,3-dihydro[1,4]dioxino[2,3-f]quinolin-2-yl]methyl}amine], the melting point was 198 to 199 °C (dec.).
Still for that read-out and setting: then `Cc1ccc2c3c(ccc2n1)OCC(CNC1CCC(c2cn(C)c4ccc(F)cc24)C1)O3` (single isomer, unassigned) (as salt: fumarate) [Example 5], with 200 to 201 °C.
In turn, `Cc1nc2ccc3c(c2o1)O[C@@H](CN[C@H]1CC[C@@H](c2c[nH]c4ccc(F)cc42)CC1)CO3` [Example 12] gave a melting point of 80 to 82 °C. In addition, the Ki at serotonin transporter is 11 nM. Also, the Ki at human 5HT1A receptors is 84.4 nM.

The melting point is the temperature of the solid-liquid transition. In general, Ki refers to a dissociation constant, usually derived from enzyme kinetics or from competition with a known ligand. One may read the IC50 as the concentration that inhibits the measured activity by half.
